Measured values published in patent publication US6756368B1, “Use of cobalt chelates for treating or preventing virus infection” (The Trustees of Columbia University in the City of New York, priority 1999, dated 2004).
Entries after “also recorded” stand apart in the source; their conditions may differ.

Tests used:
HSV-1 [1] = assay: HSV-1 DNA replication in the presence of drug (Southern/slot blot); format: cell-based, HSV-1 Glasgow strain 17
Protocol: (i) DNA preparation. Vero cells infected with MOI of 5 were infected and maintained in the presence and absence of 50 μg/ml CTC-96. Infected cells were harvested by freezing (−80° C.) at the indicated times postinfection. Total infected cell DNA was extracted as described (54).
(ii) Slot blot analysis. Slot blot analysis was performed as previously described (55). Briefly, equal amounts of nuclear or cytoplasmic infected cell DNAs were blotted onto GeneScreen Plus using a MINIFOLD II Slot Blot System (Schleicher and Schuell, Keene, N.H.) and cross-linked with a Stratalinker 2400 (Stratagene, La Jolla, Calif.) using UV-irradiation. A 4.5 kB SalI-DdeI fragment from the α4 gene of HSV-1 which had been labeled with [α-32P]dCTP (NEN Life Sciences Products, Boston, Mass.) by random priming (Boehringer Mannheim, Indianapolis, Ind.) was hybridized to the nuclear and cytoplasmic DNAs and washed as specified by the manufacturer. Bands were visualized using autoradiography.
A series of experiments were initiated to determine the point in the replication cycle where CTC-96 acts. Our first study examined the effects of drug on replication of virus DNA. Cells were infected at an moi of 5 in the presence of the absence of drug and harvested by trypsinization at 1 and 9 hr post infection. Virus DNA was extracted from cells by selective salt precipitation and the amount of virus-specific DNA was assayed after transfer to a nitrocellulose membrane by Southern blot hybridization using a phophorimager to quantitate signal.
Cells were infected and at various intervals drug was added and left on the infected cell cultures until 24 hr pi. At this time samples were harvested and DNA extracted and analyzed as described above. […] By 12 hr post infection the bulk of DNA replication is complete as there is only a small difference between the hybridization signal generated in an untreated 24 hr sample when compared with a sample treated at 12 hr and analyzed at 24 hr post infection (FIG. 13).

HSV-1 [2] = assay: Accumulation of α4 and α27 mRNAs (RT-PCR); format: cell-based, HSV-1 Glasgow strain 17
Protocol: Vero cell monolayers were either mock infected or infected. The accumulation of α4 and α27 mRNAs from infected cells was determined as previously described [Lium and Silverstein 1997] by coupled reverse transcription (RT) and polymerase chain reaction (PCR) using the commercial kit, EZ rTth RNA PCR kit (Perkin-Elmer) as specified by the manufacturer with modifications. The primers used during RT were 4-2 and ICP27-L-RT [Lium and Silverstein 1997]. Following RT, secondary primers were added for PCR (4-1 and ICP27-U-RT) (55). These primers result in amplification of a 100 basepair (bp) fragment and a 220 bp fragment from the α4 and α27 genes, respectively.
The failure to detect virus specified polypeptides of any kinetic class in cells infected in the presence of CTC96 led us to ask if virus transcripts accumulated under these conditions. Accordingly, virus was incubated with 50 μg/ml of drug for 10 min and then either washed out by dilution and used to infect cells or used directly to infect cells. At 2 and 4 hr post infection cells were harvested and total infected cell RNA was prepared for analysis by RT-PCR for the presence of transcripts from the ∝4 and ∝27 genes. […] When these studies are carried out to as long as 8 hr pi there is still no detectable accumulation of virus-specified transcripts (data not shown). […] (FIG. 15).

HSV-1 [3] = assay: Fractionation and in situ localization of virus DNA; format: cell-based, HSV-1 Glasgow strain 17
HSV-1 [4] = format: cell-based, HSV-1 Glasgow strain 17
Ad-CMV-null = assay: Fluorescence focus assay, AdCMV-null on 293T cells; format: cell-based, adenovirus
Protocol: (§1) A549 or 293 cell monolayers were infected with Ad2 or Ad-CMV-null at 0.1 fluorescence focus units (FFUs) per cell for 2 h in 2% BCS DMEM in the presence and absence of 50 μg/ml CTC-96. At 29 h postinfection the plates were washed twice with PBS and fixed with methanol for 4 min at room temperature. Cells were washed twice with PBS, incubated in 500 μl 1:100 rabbit polyclonal anti-adenovirus serum in PBS for 30 min at room temperature and washed with PBS. Plates were then incubated in 500 μl 1:40 goat anti-rabbit IgG conjugated FITC in PBS. Foci were visualized using a Leitz Dialux microscope with an optical system for the selective visualization of FITC and then counted.
293T cells were plated on 35 mm dishes. Cells should be @5×10^6 cells/plate.
293T Cells were infected with AdCMV-null @ moi=0.1 (i.e. 0.1 FFU/cell)
virus was diluted in D2 media +/− 50 μg/ml CTC96 D2=2% serum DMEM
Plates were overlaid with 2.5 ml D2 +/− 50 μg/ml CTC96 and incub. @37° C. for 28 h (total)

293T cells = assay: Cytotoxic effect of drug on 293T cells; format: cell-based; settings: 50 μg/ml, no virus
Protocol: 2 plates of cells were incub. In D2 media +50 μg/ml CTC96 (to see cytotoxic effect of drug on 293T cells)
Plates containing 293T cells +or − 50 μg/lm CTC96 were examined
plates containing 293T cells +or − CTC96 were examined

[5] = tested on: adenovirus serotype 2 (Ad2); assay: Fluorescence focus assay, Ad2 on A549 cells; format: cell-based; settings: for Percent inhibition, Adenovirus: Ad2, A549
Protocol: as §1
A549s were plated on 35 mm dishes at 8×10^5 cell/plate in 10% FBS DMEM
added 19.25 μl stock to 50 μl total of each respective media (+/− 0, 5, 25 or 50 μg/ml CTC96)
After 2 h-added 3 ml of each respective media
Incubated @37° C. for 28 h (total)

Hela cells = settings: 100 μg/ml, 2 days
HSV-1 [6] = settings: in vivo; cited from earlier work
HSV-1 [7] = assay: Adsorption assay, 3H labeled HSV-1 binding to Vero cells; settings: 50 μg/ml, 4° C., MOI 100

Question: Which “virus DNA associated with infected cells at 1 hr post infection, versus no drug” value (HSV-1 [1]; 50 μg/ml from onset, harvest 1 hpi) does the source give for CC(/C=C(/C)[O-])=NCCN=C(C)/C=C(/C)[O-].Cc1ncc[nH]1.Cc1ncc[nH]1.[Br-].[Co+3] [CTC-96] here?
Answer: Its value is “no detectable difference; also recorded: equivalent amount of virus DNA”.

Question: What about the “virus DNA replication on temporal addition of drug” value (HSV-1 [1]; drug added at various times post infection, harvest 24 hr pi) of the same molecule?
Answer: The value was “increasingly more virus DNA replication as drug is added at later times post infection; also recorded: the amount of virus DNA replication increased”.

Question: What about the “increase in accumulation of virus DNA from 1 to 9 hr post infection” value (HSV-1 [1]; drug treated, moi 5) of the same molecule?
Answer: The value was “barely a two-fold increase”.

Question: What about the “time in which the action of the drug occurs” value (HSV-1 [2]) of the same molecule?
Answer: The value was “less than 10 min”.

Question: What about the “accumulation of α4 and α27 mRNAs” value (HSV-1 [2]; 50 μg/ml present from onset of infection, 2 and 4 hr pi) of the same molecule?
Answer: Its value is “neither the accumulation of α4 nor α27 mRNAs were detectable; also recorded: inhibits α4 and α27 gene expression”.

Question: What about the “accumulation of α4 and α27 mRNAs” value (HSV-1 [2]; 50 μg/ml present from onset of infection, 2 and 4 hr pi, listed as CTC96) of the same molecule?
Answer: Its value is “no accumulation”.

Question: And the “accumulation of α4 and α27 mRNAs” value (HSV-1 [2]; virus exposed to drug 10 min, drug then diluted/removed)?
Answer: The value was “began to accumulate”.

Question: What about the “accumulation of α4 and α27 mRNAs” value (HSV-1 [2]; virus exposed to drug 10 min, drug then diluted/removed, listed as CTC96) of the same molecule?
Answer: The value was “A small amount of immediate early gene RNA is detected”.

Question: What about the “nuclear accumulation of 3H labeled HSV-1 DNA (autoradiography)” value (HSV-1 [3]) of the same molecule?
Answer: Its value is “prevented the nuclear accumulation”.

Question: And the “virus DNA in nuclear and cytoplasmic fractions” value (HSV-1 [3])?
Answer: The value was “very little detectable virus DNA in either fraction; also recorded: no significant increase in nuclear associated HSV-1 specific DNA”.

Question: What about the “syncytia formation by a syncytia forming virus” value (HSV-1 [4]; CTC-96 added at 1 or 10 hpi) of the same molecule?
Answer: Its value is “unable to form syncytia”.

Question: What about the “cell-to-cell spread (multi-celled foci)” value (HSV-1 [4]; CTC-96 added at 8 hpi) of the same molecule?
Answer: The value was “unable to form multi-celled foci”.

Question: What about the adenovirus foci (Ad-CMV-null; 50 μg/ml, 293T cells, AdCMV-null moi 0.1, 28 h) of the same molecule?
Answer: The adenovirus foci was “NO FOCI ON EITHER PLATE”.

Question: What about the “% Inhibition” value (Ad-CMV-null; Ad-CMV-null, 293T, 50 μg/ml of CTC-96, fluorescence focus assay) of the same molecule?
Answer: Its value is 100%.

Question: And the “cells rounded (CPE)” value (293T cells; examined after fixation at 28 h)?
Answer: The value was “at least 50%”.

Question: What about the “cells off of plate” value (293T cells; examined after staining) of the same molecule?
Answer: The value was 50%.

Question: What about the “remaining cells rounded up (CPE)” value (293T cells; examined after staining) of the same molecule?
Answer: Its value is 50%.

Question: And the “average foci per field” value ([5]; 25 μg/ml, Plate 1)?
Answer: The value was 26 = 3.9.

Question: What about the total foci counted ([5]; 25 μg/ml, Plate 1) of the same molecule?
Answer: The total foci counted was 102.

Question: And the “average foci per field” value ([5]; 25 μg/ml, Plate 2)?
Answer: Its value is “? = 3.1”.

Question: And the total foci counted ([5]; 25 μg/ml, Plate 2)?
Answer: The total foci counted was 109.

Question: And the “average foci per field” value ([5]; 50 μg/ml, Plate 1)?
Answer: Its value is 47 = 1.6.

Question: And the total foci counted ([5]; 50 μg/ml, Plate 1)?
Answer: The total foci counted was 73.

Question: And the “average foci per field” value ([5]; 50 μg/ml, Plate 2)?
Answer: The value was 46 = 1.5.

Question: And the total foci counted ([5]; 50 μg/ml, Plate 2)?
Answer: Its total foci counted is 70.

Question: What about the “% Inhibition” value ([5]; Adenovirus (2), A549, 50 μg/ml of CTC-96, fluorescence focus assay) of the same molecule?
Answer: Its value is 36%.

Question: And the “Percent inhibition, Adenovirus” value ([5]; CTC-96 25 μg/ml)?
Answer: Its value is 18%.

Question: And the “Percent inhibition, Adenovirus” value ([5]; CTC-96 50 μg/ml)?
Answer: Its value is 64%.

Question: And the “state of the HeLa cells” value (Hela cells)?
Answer: Its value is “dead”.

Question: What about the “effect on HSV-1 keratitis in the rabbit eye model” value (HSV-1 [6]) of the same molecule?
Answer: The value was “reduce the corneal surface level of HSV-1 and facilitate the recovery from dendritic keratitis; also recorded: most potent inhibitory effect”.

Question: What about the “adsorption (binding) of HSV-1 to Vero cell monolayers” value (HSV-1 [7]) of the same molecule?
Answer: The value was “no effect”.
